Assay results reported in patent US12018033B2, “Inhibitors of protein arginine deiminases” (Forward Therapeutics, Inc., priority 2018, dated 2024).

molecular target: T1, Recombinant human PAD4 (2-663) (Homo sapiens, UniProt Q9UM07); assay: PAD4 Inhibition Assay; format: biochemical; details: 60 mins pre-incubation at RT; substrate BAEE with CaCl2; fluorescent signal (λex 405/λem 460)
T1 construct: Recombinant human PAD4 (2-663) was expressed in E. coli; made in house; host or cells: E. coli
Method: Protein: Recombinant human PAD4 (2-663) was expressed in E. coli as an N-terminal Strep-tag and C-terminal 6-his tag fusion protein. Protein was purified using Strep-tactin resin followed by size exclusion chromatography. Tags were not removed during purification. Activity of the protein was determined using ammonia quantification assay.
PAD4 enzyme (10 μL) was diluted to concentration of 75 nM in assay buffer A (100 mM HEPES, pH 8, 50 mM NaCl, 2 mM DTT, 0.6 mg/mL BSA and 0.5% DMSO) and added to wells containing 10 μL of various concentrations of test compound, or DMSO vehicle in buffer A with 1.5% final DMSO concentration in a Corning high volume 384 well black plate. Following 60 mins pre-incubation at RT with gentle shaking, the reaction was initiated by the addition of 10 μL of substrate buffer containing 3 mM N-α-benzoyl-L-arginine ethyl ester (BAEE) and 600 μM CaCl2) in assay buffer A. The reaction was stopped after 60 mins with the addition of 15 μL stop/detection buffer containing 7.5 mM phthalaldehyde, 50 mM EDTA and 7.5 mM DTT in assay buffer A. Quenched reactions were incubated at RT for 45 mins before measuring fluorescent signal (λex 405/λem 460) on an Envision plate reader (Perkin Elmer Life Sciences, Waltham, Mass., USA).

T1 sequence (Q9UM07 2-663): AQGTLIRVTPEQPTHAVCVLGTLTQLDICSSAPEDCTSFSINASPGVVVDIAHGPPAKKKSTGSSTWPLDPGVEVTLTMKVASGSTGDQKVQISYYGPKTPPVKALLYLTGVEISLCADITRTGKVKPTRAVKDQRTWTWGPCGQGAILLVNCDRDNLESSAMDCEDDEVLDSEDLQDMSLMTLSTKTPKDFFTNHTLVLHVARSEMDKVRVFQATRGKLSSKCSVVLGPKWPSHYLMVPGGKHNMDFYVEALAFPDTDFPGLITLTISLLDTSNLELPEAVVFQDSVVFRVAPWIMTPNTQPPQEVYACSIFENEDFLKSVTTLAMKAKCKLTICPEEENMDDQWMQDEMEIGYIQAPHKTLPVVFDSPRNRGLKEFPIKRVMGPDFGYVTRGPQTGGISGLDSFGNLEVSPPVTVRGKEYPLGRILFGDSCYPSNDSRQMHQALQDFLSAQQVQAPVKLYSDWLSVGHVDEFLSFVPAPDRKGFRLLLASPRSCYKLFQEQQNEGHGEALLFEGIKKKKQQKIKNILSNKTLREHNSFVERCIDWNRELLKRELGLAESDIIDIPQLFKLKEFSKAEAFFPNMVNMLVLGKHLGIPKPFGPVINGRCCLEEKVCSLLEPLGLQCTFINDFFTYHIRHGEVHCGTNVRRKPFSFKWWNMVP

| IC50 | SMILES |
| --- | --- |
| ≤ 1 µM | N[C@H]1CCN(C(=O)c2cc3cc(Cl)c(F)c(F)c3[nH]2)C1 [Example 27, (S)-(3-Aminopyrrolidin-1-yl)(5-chloro-6,7-difluoro-1H-indol-2-yl)methanone] |
| 10 to 100 µM | O=C(c1cc2cc(Cl)c(F)c(F)c2[nH]1)N1CC2(CCNC2)C1 [Example 61, (5-chloro-6,7-difluoro-1H-indol-2-yl)(2,6-diazaspiro[3.4]octan-2-yl)methanone] |
| 10 to 100 µM | N[C@H]1CN(C(=O)c2cc3cc(Cl)c(F)c(F)c3[nH]2)CC[C@@H]1F [Example 42, ((3S,4S)-3-Amino-4-fluoropiperidin-1-yl)(5-chloro-6,7-difluoro-1H-indol-2-yl)methanone] |
| ≤ 1 µM | C[C@@H]1CNC[C@@H]1NC(=O)c1cc2cc(Cl)c(F)c(F)c2[nH]1 [Example 20, 5-Chloro-6,7-difluoro-N-((3R,4R)-4-methylpyrrolidin-3-yl)-1H-indole-2-carboxamide] |
| 1 to 10 µM | CC[C@@H](CN)NC(=O)c1cc2cc(Cl)c(F)c(F)c2[nH]1 [Example 10, (S)-N-(1-Aminobutan-2-yl)-5-chloro-6,7-difluoro-1H-indole-2-carboxamide] |
| 10 to 100 µM | CN(C(=O)c1cc2cc(Cl)c(F)c(F)c2[nH]1)C1CNC1 [Example 52, N-(azetidin-3-yl)-5-chloro-6,7-difluoro-N-methyl-1H-indole-2-carboxamide] |
| 10 to 100 µM | O=C(c1cc2cc(Cl)c(F)c(F)c2[nH]1)N1C[C@H]2CNC[C@H]2C1 [Example 59, (5-chloro-6,7-difluoro-1H-indol-2-yl)((3aR,6aS)-hexahydropyrrolo[3,4-c]pyrrol-2(1H)-yl)methanone] |
| 10 to 100 µM | N[C@@H]1CCN(C(=O)c2cc3cc(F)c(F)cc3[nH]2)C1 [Example 50, (R)-(3-Aminopyrrolidin-1-yl)(5,6-difluoro-1H-indol-2-yl)methanone] |
| 10 to 100 µM | O=C(c1cc2cc(Cl)c(F)c(F)c2[nH]1)N1CC2(CNC2)C1 [Example 60, (5-chloro-6,7-difluoro-1H-indol-2-yl)(2,6-diazaspiro[3.3]heptan-2-yl)methanone] |
| 10 to 100 µM | O=C(c1cc2cc(Cl)c(F)c(F)c2[nH]1)N1CC[C@@H]2CNC[C@@H]21 [Example 58, (5-chloro-6,7-difluoro-1H-indol-2-yl)((3aR,6aR)-hexahydropyrrolo[3,4-b]pyrrol-1(2H)-yl)methanone] |
